Laboratory results published in patent publication US20240124520A1, “N-ACYLATED HISTIDINE DIPEPTIDES AS ANTICANCER AGENTS” (THE BOARD OF TRUSTEES OF THE LELAND STANFORD JUNIOR …, priority 2019, published 2024).
Non-standard residues stand in square brackets, D forms with d. Residues, ends and D or L forms follow the SMILES beside them. *: point of attachment. Palmitoyl = CCCCCCCCCCCCCCCC(=O)*

What was measured:
[1] = test system: 4T1 murine breast cancer cell line-derived mammary tumors, metastasis to the lungs; assay: 4T1 mouse breast cancer lung metastasis study (clonogenic assay); type: in vivo; conditions: Balb/c mice
Experimental: FIG. 17: 4T1 Mouse Breast Cancer Lung Metastasis Study with MBC0179. Compound MBC0179 (in 7% w/v Cremophore EL/10% v/v ethanol/[…] vehicle) or vehicle only was administered intravenously to three groups of six Balb/c mice (8 week old) carrying 4T1 murine breast cancer cell line-derived mammary tumors, one week post-implantation. After twice weekly dosing for four weeks with vehicle (blue bar), 10 mg/kg (red bar) or 15 mg/kg (green bar) MBC0179, the mice were humanely euthanized according to IACUC guidelines and lungs excised for 4T1 colonogenic assay in order to provide a measure of 4T1 metastasis to the lungs. The colony counts were plotted, averaged and standard error calculated (error bars). […] Additonally, the percentage reduction in lung-derived 4T1 colonies between the vehicle and 15 mg/kg MBC0179 treatment group was calculated based on the average colony counts for each group, normalizing to the vehicle group, indicated on chart.
The Cell Titer Blue reagent (available from Promega, Inc.) is a buffered solution containing resazurin, a compound that is converted to resorufin, a detectable fluorescent product, by metabolically active cells. […] Metastases to the lungs may be conveniently quantified by a well-established clonogenic assay. […]

[2] = test system: MCF7, estrogen receptor positive, human breast cancer cells; assay: Cell Titer Blue in vitro cell viability assay, MCF7; type: cell-based; conditions: 72 h, MCF7 (DMEM), 3 days at 37° C.
Experimental: (§1) FIG. 8: Dose Response curve for MBC0179 with MCF7 cells. Compound MBC0179 was incubated with MCF7, estrogen receptor positive, human breast cancer cells at the indicated concentrations for 3 days at 37° C. prior to Cell Titer Blue fluorescence-based cell viability assay. Normalized cell viability data, expressed as a percentage, are averaged from three biological replicates and standard error represented by error bars for each averaged data point (empty squares). The compound concentrations are represented on log scale on the x-axis in μM units. Data were analyzed using free software called DrFit, as described in Nature Scientific Reports, Article number: 14701, (2015). […]
(§2) The Cell Titer Blue reagent (available from Promega, Inc.) is a buffered solution containing resazurin, a compound that is converted to resorufin, a detectable fluorescent product, by metabolically active cells. The fluorescence intensity of resorufin product therefore serves as a proportional measure of the number of viable cells, permitting changes in cell viability within cancer or other cell lines to be monitored in response to the addition of cytotoxic or cytostatic agents. […] Metastases to the lungs may be conveniently quantified by a well-established clonogenic assay. […]

[3] = test system: OVCAR-3 human ovarian cancer cells; assay: Cell Titer Blue in vitro cell viability assay, OVCAR-3; type: cell-based; conditions: 72 h, OVCAR-3 (RPMI), 3 days at 37° C.
Experimental: as §1, with “14:” for “8:”, “OVCAR-3” for “MCF7”, “OVCAR-3” for “MCF7, estrogen receptor positive,”, “ovarian” for “breast”
as §2

[4] = test system: ZR-75-30 human breast cancer cells; assay: Cell Titer Blue in vitro cell viability assay, ZR-75-30; type: cell-based; conditions: 72 h, ZR-75-30 (DMEM), 3 days at 37° C.
Experimental: as §1, with “10:” for “8:”, “ZR-75-30” for “MCF7”, “ZR-75-30” for “MCF7, estrogen receptor positive,”
as §2

IC50 [2]: 355 µM | IC50 [3]: 9.22 µM | IC50 [4]: 9.7 µM
SMILES: CCCCCCCCCCCCCCCC(=O)N[C@H](Cc1c[nH]cn1)C(=O)N[C@@H](C(=O)OCC)C(C)C [Compound 5, N-[N-(1-oxohexadecyl)-D-histidyl]-D-valine ethyl ester] (Palmitoyl-[dH]-[dV]-OEt)
lung metastases (average 4T1 colony counts) ([1]; 10 mg/kg and 15 mg/kg intravenous twice weekly vs vehicle): dose-dependent reduction in lung metastases | percent reduction in lung metastases ([1]; 15 mg/kg intravenous twice weekly for four weeks vs vehicle, lung-derived 4T1 colonies, p=0.03, two-tailed t-test): 74.4%
